Data reported in a compilation of properties of binary mixtures (doi:10.1021/acs.jced.3c00239).

Experiment: xn = mol fraction of the nth substance listed
Conditions: 100 kPa

CC[n+]1ccn(C)c1.N#C[N-]C#N + CCCCO
Conditions | speed of sound [m/s] | viscosity [mPa·s]
298.15 K, x1 = 0.1015 | 1316 | 2.73
298.15 K, x1 = 0.2007 | 1385 | 2.85
298.15 K, x1 = 0.4008 | 1515 | 3.54
298.15 K, x1 = 0.5021 | 1575 | 4.21
298.15 K, x1 = 0.6014 | 1629 | 5.1
298.15 K, x1 = 0.7012 | 1685 | 6.4
298.15 K, x1 = 0.8016 | 1725 | 7.9
298.15 K, x1 = 0.9012 | 1763 | 10
298.15 K, x1 = 1 | 1787 | 13.1
303.15 K, x1 = 0.1015 | 1300 | 2.36
303.15 K, x1 = 0.2007 | 1369 | 2.41
303.15 K, x1 = 0.3006 | 1435 | 2.63
303.15 K, x1 = 0.4008 | 1499 | 2.99
303.15 K, x1 = 0.5021 | 1559 | 3.55
303.15 K, x1 = 0.6014 | 1613 | 4.26
303.15 K, x1 = 0.7012 | 1669 | 5.2
303.15 K, x1 = 0.8016 | 1709 | 6.6
303.15 K, x1 = 1 | 1775 | 11.8
308.15 K, x1 = 0.1015 | 1283 | 2.11
308.15 K, x1 = 0.2007 | 1352 | 2.17
308.15 K, x1 = 0.5021 | 1542 | 2.86
308.15 K, x1 = 0.6014 | 1596 | 3.47
308.15 K, x1 = 0.9012 | 1730 | 7.3
308.15 K, x1 = 1 | 1763 | 10.9
313.15 K, x1 = 0.1015 | 1266 | 1.91
313.15 K, x1 = 0.4008 | 1466 | 2.16
313.15 K, x1 = 0.5021 | 1525 | 2.38
313.15 K, x1 = 0.6014 | 1580 | 2.89
313.15 K, x1 = 0.7012 | 1636 | 3.58
313.15 K, x1 = 0.8016 | 1676 | 4.42
313.15 K, x1 = 0.9012 | 1713 | 6
313.15 K, x1 = 1 | 1751 | 9
318.15 K, x1 = 0.1015 | 1250 | 1.71
318.15 K, x1 = 0.2007 | 1319 | 1.79
318.15 K, x1 = 0.3006 | 1385 | 1.86
318.15 K, x1 = 0.4008 | 1449 | 1.93
318.15 K, x1 = 0.5021 | 1509 | 2.07
318.15 K, x1 = 0.7012 | 1619 | 2.91
318.15 K, x1 = 0.8016 | 1659 | 3.61
318.15 K, x1 = 0.9012 | 1697 | 5
318.15 K, x1 = 1 | 1739 | 8.1
323.15 K, x1 = 0.1015 | 1233 | 1.52
323.15 K, x1 = 0.3006 | 1369 | 1.63
323.15 K, x1 = 0.5021 | 1492 | 1.84
323.15 K, x1 = 0.6014 | 1547 | 1.99
323.15 K, x1 = 0.7012 | 1603 | 2.43
323.15 K, x1 = 0.8016 | 1643 | 3.03
323.15 K, x1 = 0.9012 | 1680 | 4.01
323.15 K, x1 = 1 | 1727 | 7.3

CCCCO + CC[n+]1ccn(C)c1.N#C[N-]C#N
x2 = 0
Conditions | speed of sound [m/s] | viscosity [mPa·s]
298.15 K | 1241 | 2.69
303.15 K | 1224 | 2.41
308.15 K | 1207 | 2.17
313.15 K | 1191 | 1.91
318.15 K | 1174 | 1.71
323.15 K | 1158 | 1.57
